XC50 data for 87 compounds are collected here from ChEMBL document CHEMBL1157539, “Thousands of chemical starting points for antimalarial lead identification” (Nature, 2010).

In this assay the test system is Plasmodium falciparum. Put plainly: GSK_TCMDC: Inhibition of Plasmodium falciparum 3D7 in whole erythrocytes, using parasite LDH activity as an index of growth. It is filed as functional, organism-based. The conditions noted are these: Plasmodium falciparum, 3D7.
As for `O=[N+]([O-])c1ccc(Nc2nc(N/N=C/c3cccc(O)c3)nc(N3CCCC3)n2)cc1`, the XC50 was 1080 nM. With `CCN(CC)CCN(Cc1ccc(-c2ccc(C(F)(F)F)cc2)cc1)C(=O)Cn1c(CCc2cc(F)c(F)c(F)c2)nc(=O)c2ccccc21`, the XC50 turned out to be 827 nM. The compound `CC(C)N1CCC(N(Cc2ccc(-c3ccc(C(F)(F)F)cc3)cc2)C(=O)Cn2c(CCc3cccc(F)c3F)nc(=O)c3cccnc32)CC1` registered an XC50 of 642 nM. For the compound `CCN(CC)CCN(Cc1ccc(-c2ccc(C(F)(F)F)cc2)cc1)C(=O)Cn1c(CCc2ccc(F)c(F)c2F)nc(=O)c2ccc(F)cc21`, the XC50 was determined as 736 nM. `CO/C(=C\C=C\c1cc2cc(Cl)c(Cl)cc2[nH]1)C(=O)NC1CC(C)N(C)C(C)C1` (configuration not stated) showed an XC50 of 902 nM. The result for `CC(=O)NCCNCc1cccc(C(=O)NCc2cccc(C(F)(F)F)c2)c1` reads 1080 nM; that for `COc1ccc(CN2CCCN(Cc3cccc(NC(=O)c4ccc(Cl)c(Cl)c4)c3)CC2)cc1`, 973 nM; that for `CCc1ccc2nc(-c3ccc(F)cc3)nc(SCC(=O)Nc3sc(C)c(C)c3C#N)c2c1`, 643 nM.

The compound `CN(C)CCOc1cc(NC(=O)Nc2ccc(-c3ccccc3)cc2)ccc1I` yielded an XC50 of 595 nM.

`CN(C)CC(=O)NCC(NCCCNc1cc(=O)c2ccccc2[nH]1)c1cc(Br)cc(Br)c1` (configuration not stated) returned an XC50 of 1050 nM. In turn, `CC(C)(CN)c1nc(-c2ccc(Br)c(O)c2)c(-c2ccncc2)[nH]1` displayed an XC50 of 965 nM. The value for `Cc1ccc(-c2ccc3c(c2)C=C(C(=O)NCC2CCN(CC4CCN(C(=O)/C=C/c5ccc(Cl)c(Cl)c5)CC4)CC2)CCC3)cc1` was 777 nM. In the case of `COc1ccc(NCCCNc2ccnc3ccccc23)cc1`, the XC50 worked out at 966 nM.

Consider `CCCCCc1cc(OC(C)=O)c2c(c1)OC(C)(C)C=C2C1=CCN(Cc2ccccc2)CC1`, for which the XC50 was 926 nM. Consider `c1ccn2c(Sc3ncnc4sccc34)ncc2c1`, for which the XC50 was 663 nM. On to `OC(CNCc1cccc(Oc2ccc(Cl)cc2)c1)c1cccc(C(F)(F)F)c1` (configuration not stated), for which the XC50 is 971 nM. For the compound `Clc1ccc(CCNCCCCCCNCCc2ccc3c(c2)OCO3)cc1`, the XC50 turned out to be 1730 nM. The result for `CC(=O)Nc1nc(C)c(-c2csc(Nc3ccc(Cl)cc3)n2)s1` reads 258 nM. Consider `COc1cc(Nc2nccc(N3CCC(NC(=O)Nc4cccc(C(C)=O)c4)C3)n2)cc(OC)c1OC` (configuration not stated), for which the XC50 turned out to be 973 nM.

In the case of `Cc1ccc(/C=C/C(=O)N2CCC(CCN3CCC(c4c[nH]c5ccccc45)CC3)CC2)cc1C`, the XC50 was found to be 926 nM.

The compound `O=C(Nc1ccc(N2CCN(Cc3cccc(F)c3)CC2)cc1)c1cccs1` registered an XC50 of 682 nM. The result for `Cc1cc(C(=O)CN2C(=O)NC(C)(c3cccc4ccccc34)C2=O)c(C)n1Cc1ccco1` (configuration not stated) reads 626 nM. `Cc1cccc(C(=O)Nc2ccnc(N3CCC(N(C)Cc4cccc(O)c4)CC3)c2)c1` had an XC50 of 920 nM. The result for `COc1ccc2ncc(F)c(CCN3CCC(NCc4cc5c(cn4)OCCS5)CC3)c2c1` reads 776 nM; that for `O=C(Nc1ccc(Cn2ncc(N3CCCNCC3)c(Cl)c2=O)cc1)Nc1cc(F)cc(C(F)(F)F)c1`, 767 nM; that for `CCCCCCc1cc2cc(-c3csc(C=Cc4ccccc4)n3)c(=O)oc2cc1O`, 970 nM. Regarding `COc1ccc2nc3ccccc3c(NCCN3CCN(C)CC3)c2c1`, the XC50 is 1290 nM. Consider `CCCCCCCCOc1c(OCC)cc(Cc2cnc(N)nc2N)cc1OCC`, for which the XC50 turned out to be 1530 nM. `Cc1cc(N[C@@H](Cc2ccccc2)C(=O)NCCOc2ccccc2)nc(NCCc2ccc(F)cc2)n1`: the XC50 is 603 nM.

In turn, `Cc1sc(CNCCCNc2cc(=O)c3ccccc3[nH]2)c(I)c1C` yielded an XC50 of 849 nM. For the compound `Cn1c(N)cc(-c2ccc(Br)cc2)c2c(=O)nc(N)nc1-2`, the XC50 is 1130 nM.

`CC1CNC(c2ccc(NC(=O)c3ccc(C(=O)Nc4ccc(C5=NC(C)CN5)cc4)cc3)cc2)=N1` (configuration not stated) displayed an XC50 of 33.6 nM. The result for `CN1CCN(c2ccc3nccc(CCN4CCC(NCc5ccc6c(n5)NC(=O)CO6)CC4)c3n2)CC1` reads 824 nM; that for `Cc1nnsc1C(=O)Nc1cccc(-c2ccc(-c3nc4cc(C(F)(F)F)ccc4[nH]3)cc2)c1`, 314 nM. `COc1ccc(N2CCN(CCc3ccc(NC(=O)c4ccc([N+](=O)[O-])cc4)cc3)CC2)c(OC)c1` displayed an XC50 of 1170 nM. In the case of `Cc1ccc(CN2CCCN(Cc3cccc(NC(=O)c4cc5ccccc5s4)c3)CC2)cc1C`, the XC50 was determined as 735 nM. The result for `Oc1ccc(-c2nc(-c3ccc4oc5ccc(-c6[nH]c(-c7ccc(O)cc7)nc6-c6ccccc6)cc5c4c3)c(-c3ccccc3)[nH]2)cc1` reads 1110 nM; that for `CCCCCOc1ccc(C=NNc2nc(O)cc(-c3ccccc3)n2)cc1`, 887 nM; that for `Cc1nc(-c2cccc(Nc3nccc(NCC(O)c4ccccc4)n3)c2)cs1` (configuration not stated), 793 nM. For the compound `Cc1cc(C(=O)Nc2ccc3c(ccn3C3CCCN(Cc4ccc(C(F)(F)F)cc4F)CC3)c2)no1` (configuration not stated), the XC50 amounted to 765 nM.

As for `CCc1c[nH]c2c(N3CCCS3(=O)=O)cc(C(=O)N[C@@H](Cc3ccccc3)[C@H](O)CNC(C)(C)CCCC(C)C)cc12`, the XC50 turned out to be 672 nM.

On to `c1ccc2c(NCCCCCCCCCNc3ccnc4ccccc34)ccnc2c1`, for which the XC50 came to 115 nM.

Take `Cc1nn(CCOC(=O)NC(NCC2COc3ccccc3O2)C(Cl)(Cl)Cl)cc1[N+](=O)[O-]` (configuration not stated): the XC50 was 917 nM. In turn, `Oc1ccc(CCNc2nc(NCc3ccccc3-c3ccc(C(F)(F)F)cc3)nc(N3CCNCC3)n2)cc1` showed an XC50 of 866 nM. As to `Cc1nc(N)nc(N)c1-c1cc(Cl)c(N)c(Cl)c1`, the XC50 amounted to 805 nM. `COc1ccc2[nH]ccc(=NN=Cc3ccccc3F)c2c1` returned an XC50 of 620 nM. In turn, `CC1CN(Cc2ccc(C#N)cc2)CCN1c1ccc(NC(=O)c2cccs2)cc1` (configuration not stated) gave an XC50 of 809 nM. On to `O=C(Nc1cccc(C(F)(F)F)c1)NC1CCN(c2ccnc3ccccc23)C1` (configuration not stated), for which the XC50 amounted to 289 nM.

Compound `c1cncc(-c2cc(N3CCCCC3)nc(-c3ccncc3)n2)c1` displayed an XC50 of 767 nM. Consider `CC(=O)N(C)c1ccc(C(=O)Nc2cccc(-c3cccc(-c4nc5cc(C(F)(F)F)ccc5[nH]4)c3)c2)cc1`, for which the XC50 was 314 nM. Compound `FC(F)(F)c1cccc(Nc2nc3nonc3nc2NC2C3CC4CC(C3)CC2C4)c1` (configuration not stated) yielded an XC50 of 661 nM. As to `CCc1ccc2c(c1O)CCN(C)C2Cc1ccccc1Cl` (configuration not stated), the XC50 was found to be 251 nM. `c1cc(Cc2ccc(Nc3c4ccccc4nc4ccccc34)cc2)cc(Nc2c3ccccc3nc3ccccc23)c1`: the XC50 was 143 nM. Regarding `CCc1ccc(N2C(N)=NC(N)=NC2(C)C)cc1`, the XC50 is 8.82 nM. The value for `O=C(Nc1cccc(-c2ccc(-c3nc4ccccc4[nH]3)cc2)c1)Nc1ccc2c(c1)OCO2` was 671 nM; that for `COc1ccc(CCCc2nc(N)nc(N)c2-c2ccc(Cl)cc2)cc1` was 44.2 nM; that for `Cn1cc(CN2CCC(CCOC(c3ccccc3)c3ccccc3)CC2)cn1` was 259 nM. In turn, `Nc1ccc(-c2ccc3ccnc(N)c3c2)cc1` registered an XC50 of 682 nM. Take `O=[N+]([O-])c1cccc(CNCC2CCC(CNCc3cccc([N+](=O)[O-])c3)CC2)c1` (configuration not stated): the XC50 worked out at 138 nM. The value for `c1cncc(CN2CCN(Cc3ccc(-c4ccc(-c5nc6ccccc6[nH]5)s4)cc3)CC2)c1` was 938 nM; that for `CCNC(=O)Nc1cccc(-c2cccc(-c3nc4cccc(C)c4[nH]3)c2)c1` was 1040 nM; that for `Cc1ccccc1C1CCN(c2ccc(C(=O)NC3CC3)cn2)CC1` was 846 nM. `NOCCCOc1ccccc1` showed an XC50 of 321 nM. As for `Oc1ccc2ccccc2c1CNCC1CCCCC1`, the XC50 is 667 nM. Compound `OC(c1ccc(Cl)cc1)(c1ccc(Cl)cc1)C(c1ccc(Cl)cc1)n1ccnc1` (configuration not stated) came in with an XC50 of 863 nM. `O=C(Nc1cccc(N2CCC(NCCCn3ccnc3)CC2)c1)c1cccc(C(F)(F)F)c1`: the XC50 was determined as 1110 nM.

As for `OCCN1CCN(C2Cc3ccc(F)cc3Sc3ccc(Cl)cc32)CC1` (configuration not stated), the XC50 worked out at 876 nM. `C[C@@H](CC1CCCCC1)NCc1cccc(NS(=O)(=O)c2ccc(O)c(-c3ccno3)c2)c1`: the XC50 turned out to be 376 nM. The compound `Cc1ccc(C(C)C)c(Oc2cnc(NC(CO)c3ccccc3)nc2N)c1` (configuration not stated) had an XC50 of 962 nM. Compound `CCN(CC)CCN(Cc1ccc(-c2ccc(C(F)(F)F)cc2)cc1)C(=O)c1ccc(-c2ccc(NC(=O)OC)cc2C)cc1` registered an XC50 of 929 nM. The value for `Cc1cc(F)ccc1-c1nc(N(C)CCN(C)C(=O)N(C)c2ccccc2)nc2c1ccc(=O)n2-c1c(F)cccc1F` was 1240 nM; that for `C1=CN(Cc2ccccc2)C=CC1=C1C=Nc2ccccc21` was 756 nM; that for `c1ccc(CN2CCc3cc4nccc(N5CCNCC5)c4cc32)cc1` was 400 nM. The result for `Cc1cc(C)cc(N2C(N)=NC(N)=NC2(C)C)c1` reads 42 nM; that for `CNC(=O)c1cnc(Nc2ccc(N3CCOCC3)cc2)nc1Nc1cccc(OC)c1`, 759 nM; that for `CCCC(C)NC[C@@H](O)[C@H](Cc1ccccc1)NC(=O)c1cc(C2CCCC2)cc(N2CCCCS2(=O)=O)c1` (some centres not stated), 147 nM. The result for `O=C(Nc1ccc2c(c1)CCNCC2)c1ccc(-c2ccc(Cl)cc2)cc1` reads 814 nM. For `Cc1cnc(CN(Cc2ccc(-c3ccc(CNCCc4ccc(S(C)(=O)=O)cc4)cn3)cc2)C(=O)c2ccc([N+](=O)[O-])c(C)c2)cn1`, the XC50 came to 919 nM. `Cc1c(F)cc(C(=O)NC2CC2)cc1-c1ccc2c(cnn2S(=O)(=O)c2ccc(Cl)s2)c1`: the XC50 amounted to 391 nM. The value for `COc1cc2nc(-c3ccccc3)nc(N3CCN(C(=O)c4ccco4)CC3)c2cc1OC` was 1410 nM. The result for `COc1ccc(Nc2nc(C)cc(NCc3ccc(-c4c(C)noc4C)cc3)n2)cc1` reads 844 nM. Take `O=C(Nc1ccc(C(=O)OCC2CCCN3CCCCC23)cc1)c1ccc([N+](=O)[O-])cc1` (configuration not stated): the XC50 worked out at 716 nM. With `COc1ccc(C(=O)Nc2cc(Cl)c3c(c2)C2CCCN2CC3)cc1C(F)(F)F` (configuration not stated), the XC50 amounted to 753 nM. The value for `CC(O)C1CCCCN1C(=O)c1cccc(-c2ccc(-c3nc4cc(F)ccc4[nH]3)cc2)c1` (configuration not stated) was 742 nM; that for `CSc1sc(NC(=O)Nc2cccc(C(F)(F)F)c2)cc1C#N` was 912 nM; that for `C=C(C)COc1ccc(-c2n[nH]c(C(F)(F)F)c2-c2ccccc2OC)c(O)c1` was 781 nM. `COc1ccc(-c2csc3nc(C)nc(Cl)c23)cc1OC` yielded an XC50 of 357 nM.
